PMC10191551, “Safety, Tolerability, and Pharmacokinetics of Oral Ferric Maltol in Children With Iron Deficiency: Phase 1 Study” (JPGN Reports, 2021)

Conditions: in vivo
Procedure: The primary objectives were to assess iron uptake and ferric maltol pharmacokinetics. Serum iron and TSAT provided measures of iron uptake. In adults, dissociated maltol undergoes rapid glucuronidation and is cleared in urine as maltol glucuronide (36); therefore, in this study, plasma maltol glucuronide was measured to confirm the rate of clearance in children.
Sparse pharmacokinetic blood sampling was performed at baseline before the morning dose and at prespecified collection windows 0.5–6 hours after the morning dose on days 1 and 10, giving 3 to 6 samples per time point. The post-dose pharmacokinetic sample collection windows were 0.5–<1, 1–<2, 2–<3, 3–<4, and 4–<6 hours, with patients assigned to post-dose pharmacokinetic blood sampling schedules in sequential order at randomization. Individuals had the same schedule on days 1 and 10. Plasma maltol glucuronide and serum iron and TSAT were measured at each time point to calculate standard pharmacokinetic parameters.
The observed values for plasma maltol glucuronide and serum iron and TSAT were summarized by dose group and visit for the ITT population, as were changes from baseline in serum iron and TSAT. The ITT population was also used in the population pharmacokinetic analysis. […]

Cc1occc(=O)c1O[C@@H]1O[C@H](C(=O)O)[C@@H](O)[C@H](O)[C@H]1O [maltol glucuronide]
Cmax and AUC of maltol glucuronide: dose dependence: dose-dependent
